The values that follow come from article PMC10746280, “Bacterial efflux pump modulators prevent bacterial growth in macrophages and under broth conditions that mimic the host environment” (mBio, 2023).

The subject of data set [1] is S. Typhimurium SL1344 (sifB::gfp) in RAW 264.7 macrophages. Put plainly: SAFIRE macrophage assay: intracellular bacterial load (GFP signal within macrophages). The format is cell-based, Salmonella enterica serotype Typhimurium. Summed up: (§1)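 Compound or DMSO added 2 h after gentamicin-protected infection (MOI ~30, sifB::gfp SL1344) of RAW 264.7 cells and left to 18 h. Fixed cells imaged; intracellular GFP area per macrophage gives bacterial load, while retained adherent MitoTracker Red-stained macrophages define host toxicity.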

Data set [2] has as its system RAW 264.7 macrophages. Description: SAFIRE macrophage assay: host toxicity (adherent macrophage count, morphology). It is filed as cell-based. Summed up: as §1
[3] abbreviates: 5 uM compound, n=1, DMSO solvent control = 98, rifampicin 2 μg/mL = 65.
[4] abbreviates: 25 uM compound, n=1, DMSO solvent control = 98, rifampicin 2 μg/mL = 65.
[5] abbreviates: 5 uM compound, n=1, DMSO solvent control = 100.
Setting [6] is: 25 uM compound, n=1, DMSO solvent control = 100.
[7] abbreviates: 5 uM, 'Toxic' given instead of a score.
The mark [8] stands for this setting: 25 uM, 'Toxic' given instead of a score.

With `N[C@H]1CC[C@H](NCC(O)COc2ccc(Cl)c(Cl)c2)CC1` (stereo partly drawn) [CU246], in data set [1] (setting [3]), the “5 uM Avg Antibacterial Score” value turned out to be 72. Further, in data set [1] (setting [4]), the “25 uM Avg Antibacterial Score” value is 19. For the same compound, in data set [2] (setting [5]), the “5 uM Avg Cell # Score” value came to 117. In data set [2] (setting [6]), the “25 uM Avg Cell # Score” value was determined as 106.
Consider `O=C1CN(CC(O)COc2ccc(Cl)c(Cl)c2)CCN1` (stereo not drawn) [CU184], for which the “5 uM Avg Antibacterial Score” value in data set [1] (setting [7]) is listed as 103. In addition, the “25 uM Avg Antibacterial Score” value in data set [1] (setting [8]) turned out to be 102. In addition, in data set [2] (5 uM), the “5 uM Avg Cell # Score” value came to 91. In addition, the “25 uM Avg Cell # Score” value in data set [2] (25 uM) amounted to 97.
On to `NC1CCN(CC(O)COc2ccc(Cl)cc2Cl)CC1` (stereo not drawn) [CU190], for which, in data set [1] (setting [7]), the “5 uM Avg Antibacterial Score” value is on record as 24. Also, the “25 uM Avg Antibacterial Score” value in data set [1] (setting [8]) is 21. For the same compound, the “5 uM Avg Cell # Score” value in data set [2] (5 uM) was 101. In data set [2] (25 uM), the “25 uM Avg Cell # Score” value amounted to 87.
`N[C@H]1CCN(CC(O)COc2cc(Cl)cc(Cl)c2)C1` (stereo partly drawn) [CU204]: the “5 uM Avg Antibacterial Score” value in data set [1] (setting [7]) is listed as 28. The “25 uM Avg Antibacterial Score” value in data set [1] (setting [8]) amounted to 8.51. For the same compound, the “5 uM Avg Cell # Score” value in data set [2] (5 uM) stood at 93. Moreover, the “25 uM Avg Cell # Score” value in data set [2] (25 uM) worked out at 101.
On the same counts, the results for `OC(COc1ccc(Cl)c(Cl)c1)CN1CCC(Nc2ncccn2)CC1` (stereo not drawn) [CU042] are 105, 23, 77 and 90.
For `OC(COc1ccc(Cl)cc1)CN1CCC(Nc2nccs2)CC1` (stereo not drawn) [CU053], in that order: 101, 42, 127 and 140.
On the same counts, the results for `OC(COc1c(Cl)cccc1Cl)CN1CCC(Nc2nccc(C(F)(F)F)n2)C1` (stereo not drawn) [CU115] are 99, “Toxic”, 93 and 59.
Turning to `O=C1OC(COc2ccc(Cl)c(Cl)c2)CN1c1ccc(N2CCOCC2)cc1` (stereo not drawn) [CU195], the “5 uM Avg Antibacterial Score” value in data set [1] (setting [7]) was 107. In addition, the “25 uM Avg Antibacterial Score” value in data set [1] (setting [8]) is reported as 103. Further, in data set [2] (5 uM), the “5 uM Avg Cell # Score” value amounted to 114. The “25 uM Avg Cell # Score” value in data set [2] (25 uM) is recorded as 82.
In the case of `O=C(O)c1cn(C2CC2)c2cc(N3CCN(CC(O)COc4ccc(Cl)c(Cl)c4)CC3)c(F)cc2c1=O` (stereo not drawn) [CU196], the “5 uM Avg Antibacterial Score” value in data set [1] (setting [7]) is 86. The “25 uM Avg Antibacterial Score” value in data set [1] (setting [8]) is “Toxic”. In addition, in data set [2] (5 uM), the “5 uM Avg Cell # Score” value is reported as 103. Further, the “25 uM Avg Cell # Score” value in data set [2] (25 uM) was 13.
On the same counts, the results for `OC(COc1ccc(Cl)c(Cl)c1)CN1CCC(N2CCOCC2)C1` (stereo not drawn) [CU029] are 105, 63, 75 and 146.
For `OC(COc1ccc(Cl)c(Cl)c1)CN1CCC(Nc2nccc(C(F)(F)F)n2)C1` (stereo not drawn) [CU089], in that order: 30, “Toxic”, 101 and 91.
Consider `CC1(N)CCN(CC(O)COc2cc(Cl)cc(Cl)c2)CC1` (stereo not drawn) [CU243], for which the “5 uM Avg Antibacterial Score” value in data set [1] (setting [3]) is 21. Also, in data set [1] (setting [4]), the “25 uM Avg Antibacterial Score” value was found to be 12. Also, the “5 uM Avg Cell # Score” value in data set [2] (setting [5]) was 129. Also, in data set [2] (setting [6]), the “25 uM Avg Cell # Score” value was 90.
On the same counts, the results for `NC1CCCN(CC(O)COc2cc(Cl)cc(Cl)c2)CC1` (stereo not drawn) [CU231] are 22, “Toxic”, 112 and 19.
`OC(COc1ccc(Cl)c(Cl)c1)CN1CCC2(CCOCC2)C1` (stereo not drawn) [CU129]: the “5 uM Avg Antibacterial Score” value in data set [1] (setting [7]) worked out at 95. Also, the “25 uM Avg Antibacterial Score” value in data set [1] (setting [8]) was 39. Besides, the “5 uM Avg Cell # Score” value in data set [2] (5 uM) was determined as 100. Besides, the “25 uM Avg Cell # Score” value in data set [2] (25 uM) is listed as 88.
For `OC(COc1ccc(F)cc1F)CN1CCC(Nc2nccc(C(F)(F)F)n2)CC1` (stereo not drawn) [CU039], the “5 uM Avg Antibacterial Score” value in data set [1] (setting [7]) stood at 107. In addition, in data set [1] (setting [8]), the “25 uM Avg Antibacterial Score” value is 13. Further, the “5 uM Avg Cell # Score” value in data set [2] (5 uM) is reported as 90. The “25 uM Avg Cell # Score” value in data set [2] (25 uM) was found to be 145.
